# According to publication PMC12752606, “METTL10‐Mediated PIAS3 Methylation Links Purine Metabolism to Gastric Cancer Progression” (Advanced Science, 2025):
# Where “and” joins values, the source holds several entries; their conditions need not be identical. Equal entries are not always repeated. Where two headings read alike, the source gives them in different places.
# Experiment: Plasma pharmacokinetics after IV and PO administration
# Format: in vivo, male Sprague–Dawley rats
# Conditions: for concentration at 5 min / concentration at 0.25 h: male, Sprague-Dawley, rat, plasma, iv
# Description: LZQ‐02‐023‐1 was administered to male Sprague–Dawley (SD) rats (n = 3 per group) via intravenous injection at a dose of 1 mg/kg or oral gavage at a dose of 10 mg/kg. Blood samples were collected at predetermined time points, and plasma concentrations of LZQ‐02‐023‐1 were determined using a validated LC‐MS/MS method. Briefly, working solutions of the analyte were prepared by diluting stock solutions with 50% acetonitrile in water to achieve serial concentrations (10, 20, 50, 100, 200, 500, 1000, 5000, and 10 000 ng/mL). Calibration standards were prepared by spiking 5 µL of working solution into 50 µL of blank SD rat plasma, resulting in final concentrations of 1, 2, 5, 10, 20, 50, 100, 500, and 1000 ng/mL in a total volume of 55 µL. Quality control (QC) samples were independently prepared at four concentrations (2, 5, 50, and 800 ng/mL) using blank SD rat plasma, following the same procedure as for the calibration standards. On the day of analysis, 55 µL of each calibration standard, QC sample, or unknown sample (prepared by mixing 50 µL of SD rat plasma with 5 µL of blank solution) was added to 200 µL of acetonitrile:methanol (1:1, v/v) containing an internal standard (IS) mixture for protein precipitation. The samples were vortexed for 30 s, centrifuged at 4000 rpm for 15 min at 4 °C, and the resulting supernatant was diluted threefold with water. A 10 µL aliquot of the diluted supernatant was injected into an AB Sciex Triple Quad 5500 LC‐MS/MS system for quantitative analysis. Pharmacokinetic parameters, including the maximum plasma concentration (Cmax), time to reach Cmax (Tmax), elimination half‐life (t1⁄2), area under the plasma concentration‐time curve (AUC0–t and AUC0–∞), clearance (CL), and volume of distribution (Vd), were calculated using noncompartmental analysis (NCA) in Phoenix WinNonlin 8.3 (Certara; Table S3, Supporting Information).
# [1] = IV 1 mg/kg, individual rats R01-R03, 1 mg/kg
# [2] = PO 10 mg/kg, individual rats R04-R06, 10 mg/kg
smiles,measurement,setting,value
"Cc1ccc(Nc2ncc3c(n2)N(C)C(=O)N(c2cccc(N)c2)C3)cn1 [LZQ-02-023-01, Three‐(3‐aminophenyl)‐1‐methyl‐7‐((6‐methylpyridin‐3‐yl)amino)‐3,4‐dihydropyrimido [4,5‐d] pyrimidin‐2 (1H)‐one]","AUC_%Extrap_obs, mean",IV 1 mg/kg,1.09%
same,"C0, mean",IV 1 mg/kg,2250 ng/mL
same,"Vss_obs, mean",IV 1 mg/kg,0.660 L/kg
same,Plasma concentration,"IV 1 mg/kg, 5 min, individual rats R01-R03, 1 mg/kg",532 ng/mL and 563 ng/mL
same,Plasma concentration,"IV 1 mg/kg, 0.25 h, individual rats R01-R03, 1 mg/kg",35.5 ng/mL and 26.8 ng/mL
same,Plasma concentration,"IV 1 mg/kg, 0.5 h, individual rats R01-R03, 1 mg/kg",12.4 ng/mL and 16.0 ng/mL
same,Plasma concentration,"IV 1 mg/kg, 1 h, individual rats R01-R03, 1 mg/kg",4.29 ng/mL and 4.07 ng/mL
same,Plasma concentration,"IV 1 mg/kg, 2 h, individual rats R01-R03, 1 mg/kg",2.11 ng/mL and 1.86 ng/mL
same,Plasma concentration,"IV 1 mg/kg, 4 h, individual rats R01-R03",BLOQ (BLOQ = Below quantifiable limit of 1 ng/mL.)
same,Plasma concentration,"IV 1 mg/kg, 8 h, individual rats R01-R03",BLOQ (BLOQ = Below quantifiable limit of 1 ng/mL.)
same,Plasma concentration,"IV 1 mg/kg, 24 h, individual rats R01-R03",BLOQ (BLOQ = Below quantifiable limit of 1 ng/mL.)
same,AUCInf,[1],170 ng·h/mL and 195 ng·h/mL
same,AUC_%Extrap_obs,[1],1.46% and 1.11% and 0.712%
same,AUClast,[1],169 ng·h/mL and 193 ng·h/mL
same,C0,[1],2058 ng/mL and 2578 ng/mL
same,Cl_obs,[1],97.8 mL/min/kg and 85.6 mL/min/kg
same,MRTInf_obs,[1],7.2 min and 5.85 min
same,T1/2,[1],37.4 min and 31 min
same,Vss_obs,[1],0.772 L/kg and 0.707 L/kg and 0.501 L/kg
same,"AUC_%Extrap_obs, mean",PO 10 mg/kg,12.8%
same,F (bioavailability),"PO 10 mg/kg vs IV 1 mg/kg, individual rats R04-R06",2.37% and 1.27%
same,Plasma concentration,"PO 10 mg/kg, 0.25 h, individual rats R04-R06, 10 mg/kg",39.0 ng/mL and 24.0 ng/mL and 8.83 ng/mL
same,Plasma concentration,"PO 10 mg/kg, 0.5 h, individual rats R04-R06, 10 mg/kg",20.0 ng/mL and 20.1 ng/mL
same,Plasma concentration,"PO 10 mg/kg, 1 h, individual rats R04-R06, 10 mg/kg",7.33 ng/mL and 6.63 ng/mL and 3.54 ng/mL
same,Plasma concentration,"PO 10 mg/kg, 2 h, individual rats R04-R06, 10 mg/kg",3.36 ng/mL and 12.9 ng/mL and 3.14 ng/mL
same,Plasma concentration,"PO 10 mg/kg, 4 h, individual rats R04-R06, 10 mg/kg",2.02 ng/mL and 1.36 ng/mL
same,Plasma concentration,"PO 10 mg/kg, 8 h, individual rats R04-R06",BLOQ (BLOQ = Below quantifiable limit of 1 ng/mL.)
same,Plasma concentration,"PO 10 mg/kg, 24 h, individual rats R04-R06",BLOQ (BLOQ = Below quantifiable limit of 1 ng/mL.)
same,AUCInf,[2],42.0 ng·h/mL and 22.6 ng·h/mL
same,AUC_%Extrap_obs,[2],15.0% and 5.19% and 18.1%
same,AUClast,[2],27.6 ng·h/mL and 39.8 ng·h/mL and 18.5 ng·h/mL
same,Cmax,[2],24.0 ng/mL and 20.1 ng/mL
same,MRTInf_obs,[2],97.2 min and 134 min
same,T1/2,[2],101 min and 44.9 min and 125 min
same,Tmax,[2],30 min
same,concentration at 5 min,"1 mg/kg, IV 1 mg/kg, 5 min, individual rats R01-R03, read-out: Plasma concentration",504 ng/mL
same,concentration at 5 min,"1 mg/kg, IV 1 mg/kg, 5 min, read-out: Plasma concentration, mean",533 ng/mL
same,concentration at 0.25 h,"1 mg/kg, IV 1 mg/kg, 0.25 h, individual rats R01-R03, read-out: Plasma concentration",28.6 ng/mL
same,concentration at 0.25 h,"1 mg/kg, IV 1 mg/kg, 0.25 h, read-out: Plasma concentration, mean",30.3 ng/mL
